Values quoted from earlier work in patent publication US8133870B2, “Therapeutic furopyrimidines and thienopyrimidines” (BioCryst Pharmaceuticals, Inc., priority 2004, dated 2012).

System: HCV

For `NC(=O)c1ncn([C@@H]2O[C@H](CO)[C@@H](O)[C@H]2O)n1` [Ribavirin, 1-β-D-ribofuranosyl-1-1,2,4-triazole-3-carboxamide], the toxicity (ribavirin) is given as “significant toxicity”, the “patients in whom serum amino transferase levels are reduced to normal” value (ribavirin alone, patients) is given as 40% and the “serum levels of HCV-RNA” value (ribavirin alone, patients) is given as “does not lower serum levels of HCV-RNA”.
